Results taken from patent publication US7417053B2, “Pyrazolo[1,5-a]pyridine derivatives or pharmaceutically acceptable salts thereof” (Teijin Pharma Limited, priority 2005, dated 2008).
Counter-ions that a name gives are not always drawn.

target: recombinant human MAPKAP-K2 (Homo sapiens, UniProt P49137); assay: Inhibitory activity against MAPKAP-K2 enzyme (33P-ATP peptide phosphorylation); type: biochemical; details: recombinant human MAPKAP-K2, ATP 20 μmol/L solution, room temperature 30 min; read-out: Activity Strength (MAPKAP-K2 IC50 value)
Method: General Measurement Method for Determining the Inhibitory Activity Against MAPKAP-K2 enzyme
(Preparation of Solutions of Compounds)
Each compound was dissolved in DMSO to prepare a solution with a concentration of 20 mmol/L and this solution was stored at −20° C. This stock solution was diluted with DMSO successively to prepare solutions with 200-fold concentrations of a necessary range. These solutions were further diluted with water at a ratio of 1:20 to prepare solutions with 10-fold concentrations of a necessary range. Each of these solutions (5 μL) was used for each reaction in 50 μL-scale. Through the dilution series of all compounds, the final DMSO concentration was kept at 0.5%. Conventional tests for the compounds were carried out at a final concentration range from 100 μmol/L to 0.03 μmol/L. but in some cases, tests were carried out at lower concentrations, depending on activity.
(Measurements of MAPKAP-K2 Enzyme Activities)
To a 5% DMSO aqueous solution (5 μL) of a test compound, a solution (25 μL) containing a peptide substrate [peptide substrate 60 μmol/L, ATP 20 μmol/L, Tris buffer 60 mmol/L (pH 7.5), EGTA 0.2 mmol/L, β-mercaptoethanol 0.2%, magnesium acetate 20 mmol/L, [γ-33P]ATP 0.1 μCi (specific radioactivity ca. 110 TBq/mmol)] was added. The reaction was initiated by adding a solution (20 μL) containing MAPKAP-K2 enzyme [recombinant human MAPKAP-K2 10 mU, Tris buffer […] (pH 7.5), EGTA 0.1 mmol/L, β-mercaptoethanol 0.1%, BSA 0.1%]. After the reaction was carried out at room temperature for 30 min, 200 mmol/L phosphoric acid (50 μL) was added to quench the reaction, and 90 μL of the reaction mixture was adsorbed on a multiscreen PH plate (Millipore). The plate was washed with 100 mmol/L phosphoric acid. After the plate was dried, 30 μL of MicroScint-O (Perkin-Elmer) was added, and the count per minute was measured on a scintillation counter to determine the inhibitory activity. The peptide substrate was Lys-Lys-Leu-Asn-Arg-Thr-Leu-Ser-Val-Ala.
• % Reference=(X−B)/(Tot−B)×100 • % Inhibition=100−% Reference • X represents count per minute of the well with a test compound applied. • B represents count per minute of the well without the enzyme. • Tot represents count per minute of the well with only DMSO solvent and no test compound applied. (Calculation of MAPKAP-K2 Inhibitory Activity) • IC50 value represents a concentration of compound at which 50% inhibition is observed.

recombinant human MAPKAP-K2, sequence (P49137 whole entry): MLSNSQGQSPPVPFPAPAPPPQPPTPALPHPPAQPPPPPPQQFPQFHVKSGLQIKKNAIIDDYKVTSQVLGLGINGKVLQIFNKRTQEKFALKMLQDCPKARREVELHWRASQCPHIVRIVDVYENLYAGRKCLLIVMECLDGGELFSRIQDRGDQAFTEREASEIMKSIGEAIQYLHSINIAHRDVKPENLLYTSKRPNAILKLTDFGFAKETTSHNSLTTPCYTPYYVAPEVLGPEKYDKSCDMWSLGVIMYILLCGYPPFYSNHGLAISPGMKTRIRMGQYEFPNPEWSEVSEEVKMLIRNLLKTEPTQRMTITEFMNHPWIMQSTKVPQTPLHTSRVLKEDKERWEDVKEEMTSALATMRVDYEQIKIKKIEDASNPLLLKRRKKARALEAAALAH

Structure (SMILES) | IC50
COc1ccccc1Nc1cc(N[C@H]2CC[C@H](N)CC2)c(C#N)c2ccnn12 [Compound 98, 5-(trans-4-Aminocyclohexylamino)-7-(2-methoxyphenylamino)pyrazolo[1,5-a]pyridine-4-carbonitrile trifluoroacetate salt] | 200 to 1000 nM
CCOc1ccc(Nc2c(C)c(N[C@H]3CC[C@H](NCC4CCCCC4)CC3)c(C#N)c3ccnn23)cc1 [Compound 126, 5-({4-[(Cyclohexylmethyl)amino]cyclohexyl}amino)-7-[(4-ethoxyphenyl)amino]-6-methylpyrazolo[1,5-a]pyridine-4-carbonitrile trifluoroacetate salt] | 200 to 1000 nM
CCOc1ccc(Nc2c(C)c(NCCCN)c(C#N)c3ccnn23)cc1 [Compound 107, 5-[(3-Aminopropyl)amino]-7-[(4-ethoxyphenyl)amino]-6-methylpyrazolo[1,5-a]pyridine-4-carbonitrile trifluoroacetate salt] | 200 to 1000 nM
CCOc1ccc(Nc2c(C)c(N[C@H]3CC[C@H](NCCc4ccccc4)CC3)c(C#N)c3ccnn23)cc1 [Compound 125, 7-[(4-Ethoxyphenyl)amino]-6-methyl-5-(trans-{4-[(2-phenylethyl)amino]cyclohexyl}amino]pyrazolo[1,5-a]pyridine-4-carbonitrile trifluoroacetate salt] | 200 to 1000 nM
COCCOc1ccc(Nc2c(C)c(N[C@H]3CC[C@H](N)CC3)c(C#N)c3ccnn23)cc1 [Compound 89, 5-(trans-4-Aminocyclohexylamino)-7-[4-(2-methoxyethoxy)phenylamino]-6-methylpyrazolo[1,5-a]pyridine-4-carbonitrile trifluoroacetate salt] | < 200 nM
CCOc1ccc(Nc2c(C)c(NCC3CCCCN3)c(C#N)c3ccnn23)cc1 (stereo not shown) [Compound 119, 7-[(4-Ethoxyphenyl)amino]-6-methyl-5-[(2-piperidylmethyl)amino]pylrazolo[1,5-a]pyridine-4-carbonitrile trifluoroacetate salt] | 1000 to 10000 nM
CCOc1ccc(Nc2c(C)c(NC3CCNCC3)c(C#N)c3ccnn23)cc1 [Compound 103, 7-(4-Ethoxyphenylamino)-6-methyl-5-(4-pyperidylamino)pyrazolo[1,5-a]pyridine-4-carbonitrile trifluoroacetate salt] | 200 to 1000 nM
N#Cc1c(N[C@H]2CCCNC2)cc(Nc2ccc(-c3ccccc3)cc2)n2nccc12 [Compound 100, 5-[(3S)-3-Piperidylamino]-7-(4-biphenylylamino)pyrazolo[1,5-a]pyridine-4-carbonitrile trifluoroacetate salt] | 200 to 1000 nM
CCOc1ccc(Nc2c(C)c(N[C@H]3CC[C@H](NCc4ccccc4)CC3)c(C#N)c3ccnn23)cc1 [Compound 115, 7-[(4-Ethoxyphenyl)amino]-6-methyl-5-[trans-{4-(benzylamino)cyclohexyl]amino}pyrazolo[1,5-a]pyridine-4-carbonitrile trifluoroacetate salt] | 200 to 1000 nM
CCOc1ccc(Nc2c(C)c(NCCN)c(C#N)c3ccnn23)cc1 [Compound 106, 5-[(2-Aminoethyl)amino]-7-[(4-ethoxyphenyl)amino]-6-methylpyrazolo[1,5-a]pyridine-4-carbonitrile trifluoroacetate salt] | 200 to 1000 nM
CCOc1ccc(Nc2c(C)c(NCC3CCNC3)c(C#N)c3ccnn23)cc1 (stereo not shown) [Compound 112, 7-[(4-Ethoxyphenyl)amino]-6-methyl-5-[(pyrrolidin-3-ylmethyl)amino]pyarzolo[1,5-a]pyridine-4-carbonitrile trifluoroacetate salt] | 1000 to 10000 nM
CCOc1ccc(Nc2c(C)c(N[C@H]3CCCC[C@@H]3N)c(C#N)c3ccnn23)cc1 (relative stereo) [Compound 101, 5-[(trans-2-Aminocyclohexyl)amino]-7-(4-ethoxyphenylamino)-6-methylpyrazolo[1,5-a]pyridine-4-carbonitrile trifluoroacetate salt] | 10000 to 100000 nM
CCOc1ccc(Nc2c(CC)c(N[C@H]3CCCNC3)c(C#N)c3ccnn23)cc1 [Compound 105, 5-[(3S)-3-Piperidylamino]-7-(4-ethoxyphenylamino)-6-ethylpyrazolo [1,5-a]pyridine-4-carbonitrile] | < 200 nM
CCOc1ccc(Nc2c(C3CC3)c(N[C@H]3CCCNC3)c(C#N)c3ccnn23)cc1 [Compound 130, 5-[(3S)-3-Piperidylamino]-7-(4-ethoxyphenylamino)-6-cyclopropylpyrazolo[1,5-a]pyridine-4-carbonitrile] | 200 to 1000 nM
COCCOc1ccc(Nc2c(C)c(N[C@H]3CCNC3)c(C#N)c3ccnn23)cc1 [Compound 88, 5-[(3S)-3-Pyrrolidylamino]-7-[4-(2-methoxyethoxy)phenylamino]-6-methylpyrazolo[1,5-a]pyridine-4-carbonitrile trifluoroacetate salt] | 200 to 1000 nM
Cc1c(N[C@H]2CCCNC2)c(C#N)c2ccnn2c1Nc1ccccc1 [Compound 111, 5-[((3S)-(3-Piperidyl))amino]-6-methyl-7-(phenylamino)pyrazolo[1,5-a]pyridine-4-carbonitrile trifluoroacetate salt] | < 200 nM
CCOc1ccc(Nc2c(C)c(NCCC3CCCN3C)c(C#N)c3ccnn23)cc1 (stereo not shown) [Compound 133, 7-[(4-Ethoxyphenyl)amino]-6-methyl-5-{[2-(1-methylpyrrolidin-2-yl)ethyl]amino}pyrazolo[1,5-a]pyridine-4-carbonitrile trifluoroacetate salt] | 10000 to 100000 nM
CCOc1ccc(Nc2cc(N[C@H]3CCCNC3)c(C#N)c3ccnn23)cc1 [Compound 92, 5-[(3S)-3-Piperidylamino]-7-(4-ethoxyphenylamino)pyrazolo[1,5-a]pyridine-4-carbonitrile trifluoroacetate salt] | 200 to 1000 nM
CCc1nc2ccc(Nc3c(C)c(N[C@H]4CCCNC4)c(C#N)c4ccnn34)cc2s1 [Compound 118, 5-[((3S)-3-Piperidyl)amino]-7-[(2-ethylbenzothiazol-6-yl)amino]-6-methylpyrazolo[1,5-a]pyridine-4-carbonitrile trifluoroacetate salt] | < 200 nM
CCCc1c(N[C@H]2CCCNC2)c(C#N)c2ccnn2c1Nc1ccc(OCC)cc1 [Compound 121, 5-[(3S)-3-Piperidylamino]-7-(4-ethoxyphenylamino)-6-propylpyrazolo[1,5-a]pyridine-4-carbonitrile] | < 200 nM
N#Cc1c(N[C@H]2CC[C@H](N)CC2)cc(Nc2ccccc2Cl)n2nccc12 [Compound 94, 5-(trans-4-Aminocyclohexylamino)-7-(2-chlorophenylamino)pyrazolo[1,5-a]pyridine-4-carbonitrile trifluoroacetate salt] | 200 to 1000 nM
CCOc1ccc(Nc2c(CCO)c(N[C@H]3CCCNC3)c(C#N)c3ccnn23)cc1 [Compound 90, 5-[(3S)-3-Piperidylamino]-7-(4-ethoxyphenylamino)-6-(2-hydroxyethyl)pyrazolo[1,5-a]pyridine-4-carbonitrile] | < 200 nM
